Results from patent US20200171001A1, “COMBINATION THERAPY WITH 2,3-DIHYDRO-ISOINDOLE-1-ONE COMPOUNDS AND METHODS FOR TREATING PATIENTS WITH VARIOUS MUTATIONS” (Aptose Biosciences Inc., priority 2018, published 2020).

What was measured:
[1] = tested on: B-cell malignant cell lines (e.g. AML cell lines); experiment: Potency against B-cell malignant cell lines compared with conventional IDH1 therapeutic agents; type: cell-based
[2] = tested on: malignant bone marrow or peripheral blood cells from AML patients; experiment: Ex vivo drug sensitivity (MTS cell viability, IC50 and AUC) on freshly isolated primary AML patient samples, association with somatic mutations; type: cell-based, human; settings: for Sensitivity of patient samples with FLT3-ITD mutations as compared to wild-type: AML patient samples with FLT3-ITD mutations vs WT, n=118 patients; for Sensitivity of patient samples with FLT3-ITD mutations as compared to wild-type / Sensitivity of patient samples with IDH1 mutants relative to WT: FIG. 1, FIG. 2; for Sensitivity of patient samples with IDH1 mutants relative to WT: AML patient samples with IDH1 mutations vs WT; for Effectiveness (AUC of drug sensitivity) against ASXL1 mutant cells compared with wild type: ASXL1 mutant vs wild type AML cells, FIG. 5; for Effectiveness (AUC of drug sensitivity) against SRSF2 mutant cells compared with wild type: SRSF2 mutant vs wild type AML cells
Procedure: For Genomics Analysis examples 2-4 below, studies were performed according to published procedures [Tyner, J. W., Tognon, C. E., Bottomly, D. et al. Functional genomic landscape of acute myeloid leukaemia. Nature 562, 526-531 (2018) doi:10.1038/s41586-018-0623-z; Kurtz, S. E., Eide, C. […] PNAS Sep. 5, 2017 114 (36) 7554-7563], which are incorporated by reference in their entirety herein.
All patient samples were analyzed for clinical characteristics and drug sensitivity. AML, CLL, ALL and MDS/MPN and other patient samples were analyzed with respect to expanded, disease-specific panels of clinical, prognostic, genetic, cytogenetic, and surface antigen characteristics obtained from patient electronic medical records. Genetic characterization of AML samples included results of a clinical deep-sequencing panel of genes commonly mutated in hematologic malignancies (GeneTrails panel from Knight Diagnostic Laboratories, OHSU; Foundation Medicine reports from UT Southwestern).
Compound 7 and/or venetoclax were prepared in a well in a seven-point concentration series. Similar plates were prepared with the 48 indicated pairwise inhibitor combinations in seven-point fixed molar concentration series identical to those used for single agents. The final concentration of DMSO was ≤0.1% in all wells, and all sets of single-agent and combination destination plates were stored at −20° C. and thawed immediately before use. Primary mononuclear cells were plated across single-agent and combination inhibitor panels within 24 h of collection. Cells were seeded into assay plates at 10,000 cells per well in RPMI 1640 media supplemented with FBS (10%), L-glutamine, penicillin/streptomycin, and β-mercaptoethanol (10^−4 M). After 3 d of culture at 37° C. in 5% CO2, MTS reagent (CellTiter96 AQueous One; Promega) was added, optical density was measured at 490 nm, and raw absorbance values were adjusted to a reference blank value and then used to determine cell viability (normalized to untreated control wells).
Normalized viability values at each dose of a seven-point dilution series for Compound 7, venetoclax or combinations of the two compounds were analyzed for each of numerous primary leukemia samples. Dose concentrations were log 10-transformed, and a probit regression curve was fit to each seven-point drug sensitivity profile by using maximum-likelihood estimation for the intercept and slope. This parametric model was chosen over a polynomial because the probit's monotonic shape reflects a dose-response curve typically seen in samples incubated with cytotoxic or inhibitory agents. Normalized viability values greater than 100%, indicating higher cell viability than the average viability across control wells on a given plate, were truncated to 100% to produce a percentage response variable amenable to probit modeling. From the fitted probit curve for each sample/drug pairing, the IC50 was defined as the lowest concentration to achieve 50% predicted viability and the AUC was computed by integration of the curve height across the tested dose range. If the predicted cell viability (i.e., probit curve height) was ≤50% at the lowest tested dose or >50% across the entire dose range, the IC50 was designated as the lowest dose or highest dose, respectively. For sensitivity profiles with 100% normalized viability at all seven dose points, the IC50 and AUC were designated as the highest tested dose and the maximum possible AUC, respectively. For sensitivity profiles with 0% viability at all seven dose points, the IC50 and AUC were designated as the lowest tested dose and a value (0.5) just below the minimum probit-derived AUC, respectively.
Genomics analysis of Compound 7 was performed by testing the association of somatic mutations and expression data with Compound 7 response on freshly harvested malignant bone marrow or peripheral blood cells from AML patients. […]

Row | SMILES | Potency relative to conventional IDH1 therapeutic agents (e.g., Tibsovo) [1] | Sensitivity of patient samples with FLT3-ITD mutations as compared to wild-type [2] | Sensitivity of patient samples with FLT3-ITD mutations as compared to wild-type ([2]; listed as compound 7) | Sensitivity of patient samples with IDH1 R132 residue mutants relative to WT ([2]; AML patient samples with IDH1 R132 residue mutants (n=6), on average, vs WT) | Sensitivity of patient samples with IDH1 mutants relative to WT [2] | Sensitivity of patient samples with IDH1 mutants relative to WT ([2]; listed as compound 7) | Effectiveness (AUC of drug sensitivity) against ASXL1 mutant cells compared with wild type ([2]; 72-hour culture) | Effectiveness (AUC of drug sensitivity) in AML cells with IDH mutations compared to IDH wild type ([2]; IDH mutant vs IDH wild type AML cells, 72-hour culture, FIG. 4) | Effectiveness (AUC of drug sensitivity) against SRSF2 mutant cells compared with wild type ([2]; 72-hour culture, FIG. 4) | Effectiveness (AUC of drug sensitivity) in AML cells with TP53 mutations ([2]; TP53 mutant vs TP53 wild type AML cells, 72-hour culture, FIG. 3) | IC50 towards killing cells in AML patient bone marrow samples with IDH1 mutations ([2]; all patient samples with IDH1 mutations, FIG. 2)
1 | Cc1cnc(-c2ccc(-c3ccc(NC(=O)Nc4c(F)cc(F)cc4F)cc3F)c3c2C(=O)NC3)[nH]1 [Compound 7, 1-{3-fluoro-4-[7-(5-methyl-1H-imidazol-2-yl)-1-oxo-2,3-dihydro-1H-isoindol-4-yl]-phenyl}-3-(2,4,6-trifluorophenyl)urea] | more potent | highly sensitive | more sensitive | significantly greater sensitivity | highly sensitive | greater sensitivity | just as effective | substantially more effective | just as effective | retains effectiveness | particular low
2 | CC1(COc2ccc3c(c2)ncn3-c2ccc3cccc(N4CCC(N)CC4)c3n2)COC1 [crenolanib, reference compound] |  |  |  |  |  |  | appear resistant |  | appear resistant |  | 
